Values of other authors, collected in patent publication US6649645B1 (Pharmacia Corporation, priority 1998, dated 2003).

Assays:
[1] = tested on: fibroblast growth factor-induced corneal angiogenesis; settings: rats; Masferrer et al. 1999
[2] = Cynomolgus monkeys, orally for six weeks
[3] = mice, Milas et al., Cancer Res. 1990

In the case of `Cc1ccc(-c2cc(C(F)(F)F)nn2-c2ccc(S(N)(=O)=O)cc2)cc1` [Celecoxib, Benzenesulfonamide, 4-(5-(4-methylphenyl)-3-(trifluoromethyl)-1H-pyrazol-1-yl)-], the “inhibition of fibroblast growth factor-induced corneal angiogenesis” value [1] is listed as “potent inhibition”.
In the case of `CN1C(C(=O)Nc2ccccn2)=C(O)c2sc(Cl)cc2S1(=O)=O` [lornoxicam], the Toxicity [2] is listed as 1 to 2 mg/kg/day.
In the case of `COc1ccc2c(c1)c(CC(=O)O)c(C)n2C(=O)c1ccc(Cl)cc1` [indomethacin], the “tumor cure rate after radiotherapy” value (tumor; [3]) is given as “increases the tumor cure rate”, the “tumor growth delay after radiotherapy” value (tumor; [3]) is given as “prolongs tumor growth delay” and the “enhancement factor (tumor curability)” value (tumor; printed as 'radiation alone') is given as 1.26. For the same molecule, the “enhancement factor (tumor growth delay)” value (tumor; radiation-indomethacin) was 1.4.
